Experimental data reported in patent EP2167056B1, “TRANSDERMAL AND TRANSMUCOSAL DRUG DELIVERY ENHANCERS” (priority 2007, dated 2008).
Like-named read-outs stand apart in the source and are kept apart here.

Experiments:
[1] = tested on: plasma glucose; assay: Nasal absorption of insulin with octapinol hydrochloride, reduction in plasma glucose (Example 6); assay type: in vivo, Sprague Dawley male rats; conditions: for D (%) total reduction in plasma glucose / Maximum reduction in plasma glucose (%): nasal, mean (S.D.), n=6
Method: Tests on the enhancement effect of octapinol (M1523), i.e.4-(2-propylpentyl)-1- 2-propylpentyl)-1-piperidine-ethanol, a compound according to Formula (I), for nasal absorption of peptides were carried out on Sprague Dawley male rats with an individual weight of 250-300 g. The rats were fasted for 15-17 hours and anaesthetized prior to the tests. Trachea and arteria carotis were catheterized with a polyethylene tube. The peptide used for the tests was insulin.
The rats were divided into 5 groups and were administered through the nostril via a polyethylene tube with • 1 % octapinol hydrochloride (placebo group) • insulin (Actrapid ® Human from NovoNordisk, Denmark) 5 IE/kg body weight in physiological NaCl (control group) • insulin 2.5 IE/kg body weight with 0.02% octapinol hydrochloride (test group) • insulin 2.5 IE/kg body weight with 0.2% octapinol hydrochloride (test group) • insulin 2.5 IE/kg body weight with 1% octapinol hydrochloride (test group) The pH-value was 3.1 in the test solutions. The administration volume per rat was 25-30 µl.
There were 4 rats in the placebo group, 3 rats in the control group and 6 rats in each of the three test groups.
During the initial tests octapinol hydrochloride was administered nasally together with insulin 5 IE/kg body weight. At an early stage, pronounced reductions in plasma glucose with 1% octapinol hydrochloride were noted.
In the control and test groups 150 µl blood was taken from arteria carotis 0, 10, 20, 30, 40, 50, 60, 120, 180 and 240 minutes respectively after administration.
(§1) The plasma content of glucose was determined through measurement of the amount NADH formed in accordance with the below reactions. [drawing 4] glucose-6-phosphate + NAD^+ -----> 6-phosphogluconate + NADH + H^+
The change in glucose content was set off against time and the area below the graph (AUC) was calculated with the trapezium method.
The total reduction in plasma glucose (D%) and the maximal reduction in plasma glucose after nasal administration of insulin with octapinol hydrochloride is given in Table 6. The total reduction in plasma glucose (D%) was calculated according to Hirai et al (Int. J. Pharmaceut., 9,173-184: 1981). D % = (AUCc −AUCin)/(AUCc) × 100 [formula] • AUCc= area under the graph for intranasally administered insulin 5 IE/kg body weight in physiological Na Cl (control group) • AUCin= area under the graph for intranasally administered insulin in octapinol solution Table 6

[2] = Franz diffusion cell permeation of hydromorphone hydrochloride with delmopinol analogues (Example 2); conditions: 5 % hydromorphone hydrochloride in distilled water with 25 % delmopinol analogue
Method: The permeation test was carried out using a Franz diffusion cell with a diffusion area of 1.8 cm^2 as in Example 1. […] Penetration with or without addition of different delmopinol analogues was studied in 5 parallel tests (3 cells per test).

[3] = tested on: plasma glucose; assay: Intravenous administration of octapinol hydrochloride + insulin, reduction in plasma glucose; assay type: in vivo, Sprague Dawley male rats; conditions: 1% octapinol hydrochloride + 0.2 IE insulin/kg intravenously, after 20 minutes
Method: A reduction in plasma glucose of about 40 % was observed after 20 minutes.
as §1

[4] = Franz diffusion cell permeation of 3H-labeled TRH (Example 5); assay type: in vitro ADME, human
Method: A human full-skin sample was positioned in the cell with a 0.05 M phosphate buffer solution (pH 6.0) as receiving phase on the "receptor" side of the skin. 180 µl of 5 % thyroid-releasing hormone (TRH) in dist. water with and without the addition of 25% delmopinol hydrochloride was used on the "donor" side of the skin. The TRH was ^3H-labeled. Penetration with and without addition of delmopinol hydrochloride was studied in 2 parallel tests (4 cells per test).
Radioactivity in the receiving phase was read at different time intervals over a one week period.

[5] = remark: listed apart in the source
Method: The permeation test was carried out using a Franz diffusion cell with a diffusion area of 1.8 cm^2 as in Example 1. […] 180 µl of 1 % nicotinic acid in distilled water with and without the addition of 25% delmopinol hydrochloride was used on the "donor" side of the skin. The nicotinic acid was ^14C-labeled. Penetration with and without addition of delmopinol hydrochloride was studied in 2 parallel tests (3 cells per test).
Radioactivity in the receiving" phase was read at different time intervals over a one week period. […]

[6] = assay type: in vitro ADME, human
Method: 180 µl of 1 % mannitol in distilled water with and without the addition of 1, 5, 10 and 25 % delmopinol hydrochloride respectively was used on the "donor" side of the skin. The mannitol was ^3H-labeled.
A very pronounced effect of the penetration enhancer was seen, but only little if any difference between the concentrations 5, 10 and 25 %, as shown in Table 4.

[7] = insulin 2.5 IE/kg with 0.02 % octapinol hydrochloride
[8] = insulin 2.5 IE/kg with 0.2 % octapinol hydrochloride
[9] = insulin 2.5 IE/kg with 1 % octapinol hydrochloride

CCCC(CCC)CC1CCN(CCO)CC1 [M 1523 (octapinol)]
change in plasma glucose level ([1]; 1% octapinol hydrochloride alone, nasally, four rats): No significant change
reductions in plasma glucose, of the initial plasma glucose value ([1]; initial tests: nasal, insulin 5 IE/kg with 1% octapinol hydrochloride): 85 - 90%
D (%) total reduction in plasma glucose [1, 7]: 3.6 (3.2) %
Maximum reduction in plasma glucose (%) [1, 7]: 3.5 (2.9) %
D (%) total reduction in plasma glucose [1, 8]: 9.5 (5.3) %
Maximum reduction in plasma glucose (%) [1, 8]: 6.5 (3.5) %
D (%) total reduction in plasma glucose [1, 9]: 23.8 (5.8) %
Maximum reduction in plasma glucose (%) [1, 9]: 39.1 (11.3) %
Flux (of hydromorphone hydrochloride) [2]: 13 µg/h/cm^2
reduction in plasma glucose [3]: about 40%

CCCCCCCCCCC1CN(CCCO)CCO1 (stereo not shown) [M 1676]
Flux (of hydromorphone hydrochloride) [2]: 19 µg/h/cm^2

CCCC(CCC)CCCC1COCC[N+]1(C)CCO.[Cl-] (stereo not shown) [M 1713, 4-(2-hydroxyethyl)-4-methyl-3-(4-propylheptyl)-morpholinium chloride]
Flux (of hydromorphone hydrochloride) [2]: 4.8 µg/h/cm^2

CCCC(CCC)CCCC1COCCN1CCO (stereo not shown) [delmopinol]
steady state flux of morphine sulphate (10 % morphine sulphate in distilled water with 25% delmopinol hydrochloride): about 26 µg/h/cm^2
factor by which permeation of hydromorphone hydrochloride is increased (in the presence of 25 % delmopinol versus without): about 290
Flux (steady state flux of TRH) ([4]; pH 6): 34 ng/h/cm^2
Flux (steady state flux of nicotinic acid) ([5]; pH 7.4): 1.5 µg/h/cm^2

OC[C@@H](O)[C@@H](O)[C@H](O)[C@H](O)CO [mannitol, reference compound]
Flux (of mannitol) [6]: 6.6 µg/h/cm^2

O=C(O)c1cccnc1 [nicotinic acid, reference compound]
Flux (steady state flux of nicotinic acid) [5]: 0.15 µg/h/cm^2

thyroid-releasing hormone (TRH) [reference compound]
Flux (steady state flux of TRH) ([4]; 5 % TRH in dist. water without enhancer): 4 ng/h/cm^2
